Assay results published in patent US12012414B1, “Imidazo[1,5-a]pyrido[4,3-e]pyrimidines as CK2 inhibitors” (KING FAISAL UNIVERSITY, priority 2024, dated 2024).

Tests used:
recombinant human CK2 = biological target: T1, recombinant human CK2 (Homo sapiens, UniProt P68400); experiment: CK2 Kinase Assay (33P-ATP, substrate peptide RRRDDDSDDD); type: biochemical; details: recombinant human CK2 holoenzyme, final ATP concentration 15 μM, 10 min at 30° C.; read-out: protein kinase CK2 IC50
T1 construct: purchased Millipore
Procedure: CK2 Kinase Assay was conducted using the protocol as described in Pierre F. et al; J. Med. Chem. 2011, 54, 635-654. The tested compounds in aqueous solution were added at a volume of 10 μL to a reaction mixture comprising 10 μL of assay dilution buffer (ADB; 20 mM MOPS, pH 7.2, 25 mM β-glycerol phosphate, 5 mM EGTA, 1 mM sodium orthovanadate, and 1 mM dithiothreitol), 10 μL of substrate peptide (RRRDDDSDDD, dissolved in ADB at a concentration of 1 mM), 10 μL of recombinant human CK2 (RROP-holoenzyme, 25 ng dissolved in ADB; Millipore). Reactions were initiated by the addition of 10 μL of ATP solution (90% 75 mMMgCl2, 75 μM ATP (final ATP concentration: 15 μM) dissolved in ADB; 10% [γ-33P] ATP (stock 1 mCi/100 μL; 3000 Ci/mmol (Perkin-Elmer) and maintained for 10 min at 30° C. The reactions were quenched with 100 μL of 0.75% phosphoric acid and then transferred to and filtered through a phosphor cellulose filter plate (Millipore). After washing each well five times with 0.75% phosphoric acid, the plate was dried under vacuum for 5 min and, following the addition of 15 μL of scintillation fluid to each well, the residual radioactivity was measured using a Wallac […] counter. The IC50 values were derived from eight concentrations of test inhibitors.

MCF7 (breast) = experiment: In vitro cytotoxic activity (MTT) assay, MCF7; type: cell-based; details: Homo sapiens; MCF7 cells, exposed for 96 hours, 50% inhibition of cell proliferation; read-out: Cytotoxicity activity IC50, MCF7 (breast)
Procedure: (§1) Compounds 1-16 were screened for their in vitro cytotoxic activity utilizing a 3-(4,5-dimethyl-thiazol-2-yl)-2,5-diphenyltetrazolium bromide (MTT) assay against selected cancer human cell lines consisting of PC3 (prostate), HCT116 (colon), A375 (melanoma), H1299 (lung), MIAPaCa-2 (pancreas), HL60 (leukemia), MCF7 (breast), MDA-MB-231 (breast) (T. Mosmann, J. Immunol. Meth., 1983, 65, 55-63). The cells were cultured at 37° C. in RMPI1640 medium supplemented with 10% fetal bovine serum, 50 IU/mL penicillin, and 50 μg/mL streptomycin in a 5% CO2 incubator. All cells were sub-cultured 3 times/week by trypsinisation. Viable cells were seeded and allowed to adhere for 12 hours before a test drug was added in 96-well plates at an initial density of 1.0×10^5 cells/mL. Tumor cell lines were separately exposed to various concentrations of the tested compounds followed by incubation at a temperature of 37° C. during 96 hours inside a medium of fresh RMPI 1640. Cells were subsequently incubated at 37° C. using MTT at 0.5 mg/mL during 4 hours. After removal of supernatant, formazan crystals were dissolved in isopropanol and the optical density was measured at 570 nm. CX-4945 was used as a positive control.

HCT116 (colon) = experiment: In vitro cytotoxic activity (MTT) assay, HCT116; type: cell-based; details: Homo sapiens, HCT-116; HCT116 cells, exposed for 96 hours, 50% inhibition of cell proliferation; read-out: Cytotoxicity activity IC50, HCT116 (colon)
Procedure: as §1

H1299 (lung) = experiment: In vitro cytotoxic activity (MTT) assay, H1299; type: cell-based; details: Homo sapiens, NCI-H1299; H1299 cells, exposed for 96 hours, 50% inhibition of cell proliferation; read-out: Cytotoxicity activity IC50, H1299 (lung)
Procedure: as §1

A375 (melanoma) = experiment: In vitro cytotoxic activity (MTT) assay, A375; type: cell-based; details: Homo sapiens, A-375; A375 cells, exposed for 96 hours, 50% inhibition of cell proliferation; read-out: Cytotoxicity activity IC50, A375 (melanoma)
Procedure: as §1

MIAPaCa-2 (pancreas) = experiment: In vitro cytotoxic activity (MTT) assay, MIAPaCa-2; type: cell-based; details: Homo sapiens, MIA PaCa-2; MIAPaCa-2 cells, exposed for 96 hours, 50% inhibition of cell proliferation; read-out: Cytotoxicity activity IC50, MIAPaCa-2 (pancreas)
Procedure: as §1

HL60 (leukemia) = experiment: In vitro cytotoxic activity (MTT) assay, HL60; type: cell-based; details: Homo sapiens, HL-60; HL60 cells, exposed for 96 hours, 50% inhibition of cell proliferation; read-out: Cytotoxicity activity IC50, HL60 (leukemia)
Procedure: as §1

PC3 (prostate) = experiment: In vitro cytotoxic activity (MTT) assay, PC3; type: cell-based; details: Homo sapiens, PC-3; PC3 cells, exposed for 96 hours, 50% inhibition of cell proliferation; read-out: Cytotoxicity activity IC50, PC3 (prostate)
Procedure: as §1

MDA-MB-231 (breast) = experiment: In vitro cytotoxic activity (MTT) assay, MDA-MB-231; type: cell-based; details: Homo sapiens; MDA-MB-231 cells, exposed for 96 hours, 50% inhibition of cell proliferation; read-out: Cytotoxicity activity IC50, MDA-MB-231 (breast)
Procedure: as §1

T1 sequence (P68400 whole entry): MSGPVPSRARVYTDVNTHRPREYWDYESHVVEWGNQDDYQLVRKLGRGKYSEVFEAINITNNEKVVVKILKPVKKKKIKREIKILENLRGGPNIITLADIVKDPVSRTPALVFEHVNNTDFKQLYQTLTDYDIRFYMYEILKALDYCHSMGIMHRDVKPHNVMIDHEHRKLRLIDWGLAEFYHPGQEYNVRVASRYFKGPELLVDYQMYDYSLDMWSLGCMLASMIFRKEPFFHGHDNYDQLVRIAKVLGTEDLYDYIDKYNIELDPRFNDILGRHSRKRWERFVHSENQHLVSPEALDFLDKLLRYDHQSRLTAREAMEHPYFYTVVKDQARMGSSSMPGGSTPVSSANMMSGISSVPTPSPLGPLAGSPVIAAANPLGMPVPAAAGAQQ
T1 sequence (P67870 whole entry partner): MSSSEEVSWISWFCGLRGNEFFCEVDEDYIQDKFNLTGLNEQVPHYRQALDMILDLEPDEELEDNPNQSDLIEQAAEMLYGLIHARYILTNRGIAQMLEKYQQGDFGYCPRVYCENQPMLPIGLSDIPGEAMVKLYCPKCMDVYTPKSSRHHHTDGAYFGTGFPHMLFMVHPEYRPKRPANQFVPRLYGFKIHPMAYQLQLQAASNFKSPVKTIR

With `O=C(O)c1ncn2c1nc(Nc1cccc(Cl)c1)c1ccncc12` [Compound 1, 5-((3-chlorophenyl)amino)imidazo[1,5-a]pyrido[4,3-e]pyrimidine-3-carboxylic acid] the IC50 (recombinant human CK2) was 0.074 µM, the IC50 (MCF7 (breast)) was 5.4 µM and the IC50 (HCT116 (colon)) was 2 µM. For the same molecule, the IC50 (H1299 (lung)) was 1.9 µM, the IC50 (A375 (melanoma)) was 3.8 µM and the IC50 (MIAPaCa-2 (pancreas)) was 1.3 µM. For the same molecule, the IC50 (HL60 (leukemia)) was 3.6 µM, the IC50 (PC3 (prostate)) was 1.7 µM and the IC50 (MDA-MB-231 (breast)) was 4.5 µM.
